Series [1] deals with T1, SGK1 (Homo sapiens, UniProt O00141).
T1 sequence (O00141 1-431): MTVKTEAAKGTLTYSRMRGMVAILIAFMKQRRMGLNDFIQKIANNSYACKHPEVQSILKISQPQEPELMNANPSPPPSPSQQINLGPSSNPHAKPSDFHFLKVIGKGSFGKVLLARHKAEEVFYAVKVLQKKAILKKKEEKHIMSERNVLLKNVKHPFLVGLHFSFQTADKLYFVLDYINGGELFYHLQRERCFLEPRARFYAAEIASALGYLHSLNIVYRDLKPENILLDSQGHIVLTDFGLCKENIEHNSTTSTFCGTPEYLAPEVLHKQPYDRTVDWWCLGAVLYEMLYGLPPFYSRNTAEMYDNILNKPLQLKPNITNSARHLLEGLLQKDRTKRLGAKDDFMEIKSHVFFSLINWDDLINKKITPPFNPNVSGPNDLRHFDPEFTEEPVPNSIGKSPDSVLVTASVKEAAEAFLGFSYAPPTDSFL
Description: Cell assay: P-NDRG1 level in HeLa cells (western blot), intracellular SGK1 inhibition. Also noted: endogenous in cells; host or cells: HeLa. The settings on record: decrease of NDRG1 phosphorylation, 24 hrs incubation. It counts as cell-based. As to the method:
HeLa cells are plated out with a density of 10−20×10^3 cells/cm^2 in 6-well MTPs (Costar Corning, #3506) in DMEM medium, supplemented with 10% foetal calf serum (FCS), 2 mM glutamine and 1 mM sodium pyruvate. After 24 hrs. at 37° C. and with 5% CO2 in a cell incubator, each well is furthermore supplemented with 25 μl of a 100× DMSO solution of the compound; this solution is diluted 100-fold in the supernatant of the cell culture, which results in the expected SGK1 inhibitor concentration at a 1% DMSO concentration. The cells are incubated under the same conditions for a further 24 hrs.
The supernatants are subsequently removed (by suction), and the cells are washed once with 1 ml/well of ice-cold phosphate-buffered saline solution (PBS). 250 μl of the ice-cold lysis buffer (50 mM tris/HCl, 1 mM EDTA, 1 mM EGTA, 0.5 mM activated Na3VO4, 10 mM glycerophosphate, 50 mM NaF, 5 mM Na pyrophosphate, 1% Triton X100, 1 mM DTT, 0.1 mM PMSF and 1 μM microcystine and in each case 1 μg/ml of aprotinin, pepstatin or leupeptin) are added to each well. The cells are scraped down from the base of the well, and the cell suspension is sucked up several times with an Eppendorf pipette; the cells are thereby lysed and homogenised. […] The binding of the primary antibody was determined using antisheep IG antibody conjugated to […] peroxidase (1:5000 dilution, Calbiochem), followed by amplified chemiluminescence (SuperSignal West Dura Extended Duration, Pierce). […] The NDRG1 levels are determined after stripping of the nitrocellulose membranes using Restore™ western blot stripping buffer and the Pierce method.
On use of the P-NDRG1 antiserum, a decrease in the phosphorylation level of the NDRG1 protein can easily be detected. The decrease in the intensity of the bands in the western blot on use of the P-NDRG1 antiserum is determined, plotted against the cell culture medium concentration of the SGK1 inhibitor in a semi-logarithmic diagram and used for assessment of the intracellular inhibitor efficacy ([…]) of the SGK1 inhibitor. […]

In series [2] the target is T1, SGK1. In words: SGK1 protein kinase inhibition (enzyme), filter binding method. It counts as biochemical. From the text:
Other assays are known from the literature and could readily be performed by the person skilled in the art (see, for example, Dhanabal et al., Cancer Res. 59:189-197; Xin et al., J. Biol. Chem. 274:9116-9121; Sheu et al., Anticancer Res. 18:4435-4441; Ausprunk et al., Dev. Biol. 38:237-248; Gimbrone et al., J. Natl. Cancer Inst. 52:413-427; Nicosia et al., In Vitro 18:538-549). The inhibition of SGK1 protein kinase can be determined in the filter binding method.

The term IC50 denotes the midpoint of a concentration-inhibition curve. Read a low IC50 as higher potency. One may read the melting point as the temperature of the solid-liquid transition.

Take `CCc1c(C(=O)NNC(=O)Cc2cc(F)c(F)c(OC)c2)ccc(O)c1C` [Compound 1, N′-[2-(3,4-difluoro-5-methoxyphenyl)acetyl]-2-ethyl-4-hydroxy-3-methyl-benzohydrazide]: the melting point turned out to be 217 °C. The concentration for half-maximal inhibition (IC50) against SGK1 [1] was < 500 nM. Besides, the IC50 on SGK1 [2] is < 10 nM.

Consider `CCc1c(C(=O)NNC(=O)Cc2cc(F)c(F)cc2OC)ccc(O)c1C` [Compound 2, N′-[2-(3,4-Difluoro-6-methoxyphenyl)acetyl]-2-ethyl-4-hydroxy-3-methyl-benzohydrazide], for which the melting point came out at 220.7 °C. The 50% inhibitory concentration (IC50) on SGK1 [1] is > 500 nM. Moreover, the half-maximal inhibitory concentration (IC50) at SGK1 [2] is > 10 nM.

In the case of `CCc1c(C(=O)NNC(=O)Cc2ccc(F)c(F)c2)ccc(O)c1C` [Compound 3, N′-[2-(3,4-Difluorophenyl)acetyl]-2-ethyl-4-hydroxy-3-methylbenzohydrazide], the IC50 on SGK1 [1] is > 500 nM; on SGK1 [2], > 10 nM.

The values above are taken from US8492440B2, “Difluorophenyldiacylhydrazide derivatives” (Merck Patent GmbH, priority 2008, dated 2013).
